Reference: the supplement of paper PMC10307832

Legend:
Assay in all cases: relative viability (nuclei count vs DMSO), 5 days (fraction); higher = more cells survive
201T = test system: 201T
Outline: (§1)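 Relative viability is defined as nuclei in treated wells over nuclei in vehicle wells. Duplicate plates were run and medians reported. Lung cancer cell lines in 1536-well plates were dosed by pin tool one day after seeding, with one drug or with a fixed anchor-drug dose plus five library-drug doses (not always all listed) in √10 steps, and nuclei were counted after 5 days.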

BEN = test system: BEN
Outline: as §1

CAL-12T = test system: CAL-12T
Outline: as §1

HCC-78 = test system: HCC-78
Outline: as §1

HOP-62 = test system: HOP-62
Outline: as §1

LCLC-97TM1 = test system: LCLC-97TM1
Outline: as §1

LOU-NH91 = test system: LOU-NH91
Outline: as §1

NCI-H1355 = test system: NCI-H1355
Outline: as §1

NCI-H1395 = test system: NCI-H1395
Outline: as §1

NCI-H1651 = test system: NCI-H1651
Outline: as §1

NCI-H1793 = test system: NCI-H1793
Outline: as §1

NCI-H1915 = test system: NCI-H1915
Outline: as §1

NCI-H1944 = test system: NCI-H1944
Outline: as §1

NCI-H2126 = test system: NCI-H2126
Outline: as §1

NCI-H2347 = test system: NCI-H2347
Outline: as §1

NCI-H3122 = test system: NCI-H3122
Outline: as §1

NCI-H322M = test system: NCI-H322M
Outline: as §1

NCI-H441 = test system: NCI-H441
Outline: as §1

NCI-H650 = test system: NCI-H650
Outline: as §1

NCI-H838 = test system: NCI-H838
Outline: as §1

SK-LU-1 = test system: SK-LU-1
Outline: as §1

SW 1573 = test system: SW 1573
Outline: as §1

Compound: CCNC(=O)c1noc(-c2cc(C(C)C)c(O)cc2O)c1-c1ccc(CN2CCOCC2)cc1 [Luminespib] + Cc1cc(Nc2cc(N3CCN(C)CC3)nc(Sc3ccc(NC(=O)C4CC4)cc3)n2)n[nH]1 [Tozasertib] (partner 0.1 µM)
- relative viability (201T; first compound 0.002 µM): 0.988
- relative viability (201T; first compound 0.006325 µM): 0.907
- relative viability (201T; first compound 0.02 µM): 0.665
- relative viability (201T; first compound 0.06325 µM): 0.89
- relative viability (201T; first compound 0.2 µM): 0.849
- relative viability (BEN; first compound 0.002 µM): 0.554
- relative viability (BEN; first compound 0.006325 µM): 0.458
- relative viability (BEN; first compound 0.02 µM): 0.475
- relative viability (BEN; first compound 0.06325 µM): 0.37
- relative viability (BEN; first compound 0.2 µM): 0.383
- relative viability (CAL-12T; first compound 0.002 µM): 0.361
- relative viability (CAL-12T; first compound 0.006325 µM): 0.319
- relative viability (CAL-12T; first compound 0.02 µM): 0.211
- relative viability (CAL-12T; first compound 0.06325 µM): 0.113
- relative viability (CAL-12T; first compound 0.2 µM): 0.107
- relative viability (HCC-78; first compound 0.002 µM): 0.399
- relative viability (HCC-78; first compound 0.006325 µM): 0.273
- relative viability (HCC-78; first compound 0.06325 µM): 0.467
- relative viability (HCC-78; first compound 0.2 µM): 0.303
- relative viability (HOP-62; first compound 0.002 µM): 0.363
- relative viability (HOP-62; first compound 0.006325 µM): 0.352
- relative viability (HOP-62; first compound 0.02 µM): 0.403
- relative viability (HOP-62; first compound 0.06325 µM): 0.389
- relative viability (HOP-62; first compound 0.2 µM): 0.232
- relative viability (LCLC-97TM1; first compound 0.002 µM): 0.198
- relative viability (LCLC-97TM1; first compound 0.006325 µM): 0.268
- relative viability (LCLC-97TM1; first compound 0.02 µM): 0.117
- relative viability (LCLC-97TM1; first compound 0.06325 µM): 0.241
- relative viability (LCLC-97TM1; first compound 0.2 µM): 0.214
- relative viability (LOU-NH91; first compound 0.002 µM): 0.685
- relative viability (LOU-NH91; first compound 0.006325 µM): 0.664
- relative viability (LOU-NH91; first compound 0.02 µM): 0.428
- relative viability (LOU-NH91; first compound 0.06325 µM): 0.265
- relative viability (LOU-NH91; first compound 0.2 µM): 0.282
- relative viability (NCI-H1355; first compound 0.002 µM): 0.518
- relative viability (NCI-H1355; first compound 0.006325 µM): 0.577
- relative viability (NCI-H1355; first compound 0.02 µM): 0.421
- relative viability (NCI-H1355; first compound 0.06325 µM): 0.618
- relative viability (NCI-H1355; first compound 0.2 µM): 0.226
- relative viability (NCI-H1395; first compound 0.002 µM): 0.783
- relative viability (NCI-H1395; first compound 0.006325 µM): 0.693
- relative viability (NCI-H1395; first compound 0.02 µM): 0.676
- relative viability (NCI-H1395; first compound 0.06325 µM): 0.386
- relative viability (NCI-H1395; first compound 0.2 µM): 0.322
- relative viability (NCI-H1651; first compound 0.002 µM): 0.812
- relative viability (NCI-H1651; first compound 0.006325 µM): 0.577
- relative viability (NCI-H1651; first compound 0.02 µM): 0.611
- relative viability (NCI-H1651; first compound 0.06325 µM): 0.313
- relative viability (NCI-H1651; first compound 0.2 µM): 0.154
- relative viability (NCI-H1793; first compound 0.002 µM): 0.345
- relative viability (NCI-H1793; first compound 0.006325 µM): 0.346
- relative viability (NCI-H1793; first compound 0.02 µM): 0.296
- relative viability (NCI-H1793; first compound 0.06325 µM): 0.307
- relative viability (NCI-H1793; first compound 0.2 µM): 0.13
- relative viability (NCI-H1915; first compound 0.002 µM): 0.449
- relative viability (NCI-H1915; first compound 0.006325 µM): 0.518
- relative viability (NCI-H1915; first compound 0.02 µM): 0.377
- relative viability (NCI-H1915; first compound 0.06325 µM): 0.364
- relative viability (NCI-H1915; first compound 0.2 µM): 0.187
- relative viability (NCI-H1944; first compound 0.002 µM): 0.253
- relative viability (NCI-H1944; first compound 0.006325 µM): 0.256
- relative viability (NCI-H1944; first compound 0.02 µM): 0.22
- relative viability (NCI-H1944; first compound 0.06325 µM): 0.197
- relative viability (NCI-H1944; first compound 0.2 µM): 0.22
- relative viability (NCI-H2126; first compound 0.002 µM): 0.844
- relative viability (NCI-H2126; first compound 0.006325 µM): 0.879
- relative viability (NCI-H2126; first compound 0.02 µM): 0.661
- relative viability (NCI-H2126; first compound 0.06325 µM): 0.5
- relative viability (NCI-H2126; first compound 0.2 µM): 0.264
- relative viability (NCI-H2347; first compound 0.002 µM): 0.592
- relative viability (NCI-H2347; first compound 0.006325 µM): 0.407
- relative viability (NCI-H2347; first compound 0.02 µM): 0.471
- relative viability (NCI-H2347; first compound 0.06325 µM): 0.269
- relative viability (NCI-H2347; first compound 0.2 µM): 0.198
- relative viability (NCI-H3122; first compound 0.002 µM): 0.451
- relative viability (NCI-H3122; first compound 0.006325 µM): 0.39
- relative viability (NCI-H3122; first compound 0.02 µM): 0.106
- relative viability (NCI-H3122; first compound 0.06325 µM): 0.0834
- relative viability (NCI-H3122; first compound 0.2 µM): 0.0832
- relative viability (NCI-H322M; first compound 0.002 µM): 0.423
- relative viability (NCI-H322M; first compound 0.006325 µM): 0.458
- relative viability (NCI-H322M; first compound 0.02 µM): 0.422
- relative viability (NCI-H322M; first compound 0.06325 µM): 0.331
- relative viability (NCI-H322M; first compound 0.2 µM): 0.301
- relative viability (NCI-H441; first compound 0.002 µM): 0.671
- relative viability (NCI-H441; first compound 0.006325 µM): 0.507
- relative viability (NCI-H441; first compound 0.02 µM): 0.647
- relative viability (NCI-H441; first compound 0.06325 µM): 0.186
- relative viability (NCI-H441; first compound 0.2 µM): 0.148
- relative viability (NCI-H650; first compound 0.002 µM): 0.805
- relative viability (NCI-H650; first compound 0.006325 µM): 0.695
- relative viability (NCI-H650; first compound 0.02 µM): 0.516
- relative viability (NCI-H650; first compound 0.06325 µM): 0.199
- relative viability (NCI-H650; first compound 0.2 µM): 0.0951
- relative viability (NCI-H838; first compound 0.002 µM): 0.272
- relative viability (NCI-H838; first compound 0.006325 µM): 0.215
- relative viability (NCI-H838; first compound 0.02 µM): 0.308
- relative viability (NCI-H838; first compound 0.06325 µM): 0.164
- relative viability (NCI-H838; first compound 0.2 µM): 0.123
- relative viability (SK-LU-1; first compound 0.002 µM): 0.373
- relative viability (SK-LU-1; first compound 0.006325 µM): 0.313
- relative viability (SK-LU-1; first compound 0.02 µM): 0.292
- relative viability (SK-LU-1; first compound 0.06325 µM): 0.122
- relative viability (SK-LU-1; first compound 0.2 µM): 0.114
- relative viability (SW 1573; first compound 0.002 µM): 0.199
- relative viability (SW 1573; first compound 0.006325 µM): 0.175
- relative viability (SW 1573; first compound 0.02 µM): 0.173
- relative viability (SW 1573; first compound 0.06325 µM): 0.113
- relative viability (SW 1573; first compound 0.2 µM): 0.0892
